Measurements reported in article PMC7365253 (Journal of the American Chemical Society, 2020).

Target: Kelch-like ECH-associated protein 1 (KEAP1) (Homo sapiens, UniProt Q14145)
Format: cell-based

Sequence of Kelch-like ECH-associated protein 1 (KEAP1) (Q14145 whole entry): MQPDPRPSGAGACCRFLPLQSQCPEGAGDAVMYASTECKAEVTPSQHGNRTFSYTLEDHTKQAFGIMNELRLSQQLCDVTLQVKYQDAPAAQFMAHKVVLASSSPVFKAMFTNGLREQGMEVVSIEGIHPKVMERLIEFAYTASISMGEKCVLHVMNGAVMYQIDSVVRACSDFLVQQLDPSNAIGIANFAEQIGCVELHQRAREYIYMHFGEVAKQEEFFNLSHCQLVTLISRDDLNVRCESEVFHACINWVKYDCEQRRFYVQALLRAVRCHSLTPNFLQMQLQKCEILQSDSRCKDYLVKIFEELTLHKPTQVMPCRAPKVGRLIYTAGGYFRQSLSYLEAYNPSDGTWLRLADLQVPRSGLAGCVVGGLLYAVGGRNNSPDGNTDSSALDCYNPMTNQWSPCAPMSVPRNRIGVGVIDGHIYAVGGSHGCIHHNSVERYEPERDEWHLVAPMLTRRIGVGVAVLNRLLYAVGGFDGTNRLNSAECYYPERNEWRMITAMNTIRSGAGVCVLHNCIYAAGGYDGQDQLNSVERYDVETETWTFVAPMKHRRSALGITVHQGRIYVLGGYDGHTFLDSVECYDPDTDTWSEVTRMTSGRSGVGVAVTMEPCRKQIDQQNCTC

EC50: 1100 nM
SMILES: Cc1cc(C)c(C#N)c(S(C)(=O)=O)n1 [compound 1, 2-methylsulfony-4,6-diemthyl-nicotinonitrile]
